How the values were obtained:
[1] = system: 4T1 tumors; experiment: Wild-type or cGAS-knockout orthotopic 4T1 tumors treated intratumorally with ADU-S100; assay type: in vivo, mouse; conditions: ADU-S100 10 μg intratumorally, cGAS KO vs wild-type
Protocol: Methods. Briefly, wild-type or cGAS-knockout 4T1 tumors were orthotopically transplanted in the mammary fat pad of BALB/c immune competent mice. cGAS was knocked out using CRISPR-Cas9. The mice were treated intratumorally with PBS (vehicle) or the STING agonist, ADU-S100 (10 μg).

[2] = system: CT26 cells; experiment: Tail vein inoculation of CT26 cells in BALB/c mice, metastasis and survival; assay type: in vivo, mouse; conditions: CT26, BALB/c, IP, vs vehicle
Protocol: Animal metastasis studies: Animal experiments were performed in accordance with protocols approved by the MSKCC Institutional Animal Care and Use Committee. […] There was no need to randomize animals. Investigators were not blinded to group allocation. For tail vein injections, 5×10^4 4T1, 2.5×10^4 B16F10, or 10^5 CT26 cells were injected into the tail vein of 6-7-week old BALB/c (4T1 and CT26) or C57BL/6 (B16F10) mice. Metastasis was primarily assessed through overall survival. Overall survival endpoint was met when the mice died or met the criteria for euthanasia under the IACUC protocol. Animals were censored when death was confirmed to have occurred due to metastasis-unrelated causes such as injury or death during injection, surgery, or anesthesia. Surface lung metastases were assessed at endpoint by direct visual examination after euthanasia at which points lungs were perfused and fixed in 4% paraformaldehyde (4T1 and B16F10 experiments) or stained using India-ink (CT26 experiments). […] H-151 was reconstituted in DMSO with concentration of 100 mM. Each mouse was injected intraperitoneally with 7.5 μL of H-151 stock solution in 200 μL of PBS with 0.1% Tween −80.

[3] = system: 4T1 cells; experiment: Ifnb1 and ISG expression in transfected 4T1 cells (qPCR); assay type: cell-based, mouse
Protocol: Quantitative PCR for STING inhibition study: RNA was extracted from cells with Trizol (Invitrogen, Carlsbad, CA, #15596026). cDNA was synthesized using the RNA to cDNA EcoDry™ Premix (Double Primed) kit (Takara #639549). Real-time PCR was performed to measure the relative mRNA expression levels of ISGs and the control GAPDH using Luna® Universal qPCR Master Mix (NEB, IPSWICH, MA, M3003L). The qPCR reaction and analysis were performed on a QuantStudio 6 platform (Life technology, Carlsbad, CA). The sequence of primers for Ccl5 is 5′-[…]-3′ and 5′-[…]-3′. The sequence of primers for Cxcl10 is 5′-[…]-3′ and 5′-[…]-3′, The sequence of primers for Isg15 is 5-A AAGAA-[…]-3′ and 5′-[…]-3′. The sequence for primers for Gapdh is 5′-[…]-3′ and 5′-[…]-3′.
Despite constitutive cGAS-STING activation, 4T1 cells had low baseline expression of Ifnb1 and other ISGs. […] Similar to our in vitro findings, control, cGAS-KO, and STING-KO tumors had low basal—and nearly undetectable—levels of IFN-β, when compared to those observed during active anti-tumor immune responses arising from immune checkpoint blockade of a responsive tumor model used as a reference control (FIG. 6D).

[4] = system: 4T1 cells; experiment: Fluorescence-based indirect adenosine measurement after exogenous cGAMP; assay type: cell-based, mouse; conditions: with and without EHNA
[5] = system: 4T1 cells; experiment: Wound migration of control, Cgas-KO and Enpp1-KO 4T1 cells; assay type: cell-based, mouse; conditions: cGAMP 5.5 μm
Protocol: Cellular growth and migration assays: Cellular proliferation rates were assessed by seeding 5×10^4 control or Enpp1-KO 4T1 cells in 6-well plates (3-4 replicates per condition). Cells were seeded in the regular RPMI medium with 10% Fetal bovine serum (FBS). About 48 hours before cells growing to form a 90% confluency monolayer, regular media were replaced with media containing indicated drugs. […] Fresh medium was changed every 12 hours. When reaching ˜90% confluency, cells were treated with RPMI medium containing 10 μm Mitomycin C for 1 hour. Wounds were formed using sterile P200 pipette tips. Images of the wounds were captured every 8 hours and were analyzed with a wound healing tool macro in ImageJ (dev.mri.cnrs.fr/projects/imagej-macros/wiki/Wound_Healing_Tool).
Through its ability to bind extracellular adenosine receptors in both tumor and immune cells, adenosine promotes cancer cell migration and is a potent immune suppressor, respectively (FIG. 12B).

For `Nc1ncnc2c1ncn2[C@@H]1O[C@@H]2COP(=O)([S-])O[C@@H]3[C@H](O)[C@@H](COP([O-])(=S)O[C@H]2[C@H]1O)O[C@H]3n1cnc2c(N)ncnc21.[Na+].[Na+]` (stereo partly shown) [ADU-S100], the “tumor sensitivity (tumor volume over time)” value [1] was “most sensitive condition”.

With `CCc1ccc(NC(=O)Nc2c[nH]c3ccccc23)cc1` [H-151] the “survival of tumor bearing mice” value [2] was “significant prolongation in overall survival”.

With `Nc1nc2c(ncn2[C@@H]2O[C@@H]3COP(=O)(O)O[C@H]4[C@@H](O)[C@H](n5cnc6c(N)ncnc65)O[C@@H]4COP(=O)(O)O[C@@H]2[C@@H]3O)c(=O)[nH]1` [cGAMP, 2′3′-cGAMP] the “increase in ISG expression upon transfection” value [3] was ~2 fold, the “induction in Ifnb1 upon transfection” value [3] was “no induction” and the “H2O2 production after addition of exogenous cGAMP” value [4] was “concentration-dependent increase”. The “rescue of cancer cell migration by exogenous cGAMP” value [5] was “rescued migration only in Cgas-KO but not Enpp1-KO tumor cells”.

Poly(I.C) was tested, and the “induction of ISGs upon transfection” value [3] was “robust induction of ISGs”.
